Results as given in patent publication US20130096145A1, “Use of 1H-quinazoline-2,4-diones” (Novartis AG, priority 2010, published 2013).

Test system: OF1 mice
Assay: Murine maximal electroshock test (MES Test)
Format: in vivo
Settings: p.o., pre-treatment time 1 h; protected = seizure duration 3 s or less
Experimental: (§1) Compounds of the invention were tested in OF1 mice using the maximal electroshock test (MES Test) described in detail by Schmutz et al., Naunyn-Schmiedeberg's Arch Pharmacol 1990, 342, 61-66. Briefly, generalized tonic-clonic convulsions of the hind extremities were induced by passing electrical current through temporal electrodes (50 Hz, 18 mA, 0.2s). […] 30 mg/kg carbamazepine was used as a positive control; mice were classified as protected by a compound if the duration of the seizure lasted only 3 second or less. Five mice were used for each treatment condition and the percentage of protected mice was used as readout (i.e. a compound could give 0%, 20%, 40%, 60%, 80% or 100% protection). Compounds of the invention were given at a dose of 50 mg/kg, p.o., 1 hour prior to induction of convulsions (i.e. “pre-treatment time -1 h”). ED50 values (ED: effective dose) were calculated using GraphPad Prism, v4.02. 15 s after shock administration, mouse blood was collected for determination of compounds' blood exposure.

Which “MES-Test (1 h, po) ED50” value does the source give for `CS(=O)(=O)Nn1c(=O)[nH]c2cc(C(F)(F)F)c(C3CCCO3)cc2c1=O` [B-2 (R), N-[2,4-Dioxo-6-(tetrahydro-furan-2-yl)-7-trifluoromethyl-1,4-dihydro-2H-quinazolin-3-yl]-methanesulfonamide] here?
The value was 12.8 mg/kg.

How did the “MES-Test (1 h, po) ED50” value turn out when `CS(=O)(=O)Nn1c(=O)[nH]c2cc(C(F)(F)F)c(C3CCCO3)cc2c1=O` [B-2 (S), N-[2,4-Dioxo-6-(tetrahydro-furan-2-yl)-7-trifluoromethyl-1,4-dihydro-2H-quinazolin-3-yl]-methanesulfonamide] was run?
The value was 33.2 mg/kg.

Same assay, conditions: percentage of protected mice (5 per condition) @20, p.o., 1 h

For `Cn1nccc1-c1cc2c(=O)n(NS(C)(=O)=O)c(=O)[nH]c2cc1C(C)(F)F` [Compound C-15, N-[7-(1,1-difluoro-ethyl)-6-(2-methyl-2H-pyrazol-3-yl)-2,4-dioxo-1,4-dihydro-2H-quinazolin-3-yl]-methanesulfonamide], which “MES-Test (1 h, po) protection @20” value is on record?
Its value is 80% @20.

Same assay, conditions: percentage of protected mice (5 per condition) @25, p.o., 1 h

For `CS(=O)(=O)Nn1c(=O)[nH]c2cc(C(F)(F)F)c(C3CCOC3)cc2c1=O` (stereo not drawn) [Compound B-3, N-[2,4-Dioxo-6-(tetrahydro-furan-3-yl)-7-trifluoromethyl-1,4-dihydro-2H-quinazolin-3-yl]-methanesulfonamide], which “MES-Test (1 h, po) protection @25” value is on record?
The value was 20% @25^3.

Same assay, conditions: percentage of protected mice (5 per condition) @50, p.o., 1 h

Which “MES-Test (1 h, po) protection @50” value does the source give for `CC(C)c1cc2[nH]c(=O)n(NS(C)(=O)=O)c(=O)c2cc1-c1ccnn1C(C)C` [Compound C-8, N-[7-Isopropyl-6-(2-isopropyl-2H-pyrazol-3-yl)-2,4-dioxo-1,4-dihydro-2H-quinazolin-3-yl]-methanesulfonamide] here?
The value was 40% @50.

Which “MES-Test (1 h, po) protection @50” value does the source give for `Cn1nncc1-c1cc2c(=O)n(NS(C)(=O)=O)c(=O)[nH]c2cc1C(F)(F)F` [Comparative, N-(6-(1-methyl-1H-1,2,3-triazol-5-yl)-2,4-dioxo-7-trifluoromethyl-1,4-dihydro-2H-quinazolin-3-yl]-methanesulfonamide, reference compound] here?
Its value is 0% @50.

Test system: mouse
Assay: Oral bioavailability: audiogenic mouse test and/or MES test
Format: in vivo
Settings: oral administration
Experimental: The oral bioavailability was tested using the audiogenic mouse test (Audiogenic seizures, R. L. Collins; Chapter 14, pages: 347-372. In: Experimental Models of Epilepsy; By: Pupura, Penry, Tower, Woodbury, Walter, Raven Press, New York, 1972. Standard Book Number: 0-911216-26-X) and/or the MES test.
as §1

With `COCCC(O)c1cc2c(=O)n(NS(C)(=O)=O)c(=O)[nH]c2cc1C(F)(F)F` (stereo not drawn) [Compound A-18, N-[6-(1-Hydroxy-3-methoxy-propyl)-2,4-dioxo-7-trifluoromethyl-1,4-dihydro-2H-quinazolin-3-yl]-methanesulfonamide] as the compound, how does the “In vivo orally active” value read?
The value was “Yes”.

Which “In vivo orally active” value does the source give for `CC(C)c1cc2[nH]c(=O)n(NS(C)(=O)=O)c(=O)c2cc1-c1ccnn1C(C)C` [Compound C-8, N-[7-Isopropyl-6-(2-isopropyl-2H-pyrazol-3-yl)-2,4-dioxo-1,4-dihydro-2H-quinazolin-3-yl]-methanesulfonamide] here?
The value was “yes”.

Which “In vivo orally active” value does the source give for `Cn1nccc1-c1cc2c(=O)n(NS(C)(=O)=O)c(=O)[nH]c2cc1C(F)(F)F` [Compound C-18, N-[6-(2-Methyl-2H-pyrazol-3-yl)-2,4-dioxo-7-trifluoromethyl-1,4-dihydro-2H-quinazolin-3-yl]-methanesulfonamide] here?
Its value is “Yes”.

`CCCC(O)c1cc2c(=O)n(NS(C)(=O)=O)c(=O)[nH]c2cc1C(F)(F)F` (stereo not drawn) [Compound A-15, N-[6-(1-Hydroxy-butyl)-2,4-dioxo-7-trifluoromethyl-1,4-dihydro-2H-quinazolin-3-yl]-methanesulfonamide] was tested. Which “In vivo orally active” value did it give?
Its value is “Yes”.

How did the “In vivo orally active” value turn out when `CCCOC(CC)c1cc2c(=O)n(NS(C)(=O)=O)c(=O)[nH]c2cc1C(F)(F)F` (stereo not drawn) [Compound A-6, N-[2,4-Dioxo-6-(1-propoxy-propyl)-7-trifluoromethyl-1,4-dihydro-2H-quinazolin-3-yl]-methanesulfonamide] was run?
Its value is “Yes”.

How did the “In vivo orally active” value turn out when `Cn1nccc1-c1cc2c(=O)n(NS(C)(=O)=O)c(=O)[nH]c2cc1C(C)(F)F` [Compound C-15, N-[7-(1,1-difluoro-ethyl)-6-(2-methyl-2H-pyrazol-3-yl)-2,4-dioxo-1,4-dihydro-2H-quinazolin-3-yl]-methanesulfonamide] was run?
The value was “Yes”.

Which “In vivo orally active” value does the source give for `CC(C)OC(C)c1cc2c(=O)n(NS(C)(=O)=O)c(=O)[nH]c2cc1C(F)(F)F` (stereo not drawn) [Compound A-4, N-[6-(1-Isopropoxy-ethyl)-2,4-dioxo-7-trifluoromethyl-1,4-dihydro-2H-quinazolin-3-yl]-methanesulfonamide] here?
The value was “Yes”.

`CC(C)n1nccc1-c1cc2c(=O)n(NS(C)(=O)=O)c(=O)[nH]c2cc1C(C)(F)F` [Compound C-16, N-[7-(1,1-difluoro-ethyl)-6-(2-isopropyl-2H-pyrazol-3-yl)-2,4-dioxo-1,4-dihydro-2H-quinazolin-3-yl]-methanesulfonamide] was tested. Which “In vivo orally active” value did it give?
The value was “Yes”.

With `CC(F)c1cc2[nH]c(=O)n(NS(C)(=O)=O)c(=O)c2cc1-c1ccnn1C(C)C` (stereo not drawn) [Compound C-17, N-[7-(1-fluoro-ethyl)-6-(2-isopropyl-2H-pyrazol-3-yl)-2,4-dioxo-1,4-dihydro-2H-quinazolin-3-yl]-methanesulfonamide] as the compound, how does the “In vivo orally active” value read?
The value was “Yes”.

How did the “In vivo orally active” value turn out when `CS(=O)(=O)Nn1c(=O)[nH]c2cc(C(F)(F)F)c(C3CCOC3)cc2c1=O` (stereo not drawn) [Compound B-3, N-[2,4-Dioxo-6-(tetrahydro-furan-3-yl)-7-trifluoromethyl-1,4-dihydro-2H-quinazolin-3-yl]-methanesulfonamide] was run?
Its value is “Yes”.

With `Cn1nncc1-c1cc2c(=O)n(NS(C)(=O)=O)c(=O)[nH]c2cc1C(F)(F)F` [Comparative, N-(6-(1-methyl-1H-1,2,3-triazol-5-yl)-2,4-dioxo-7-trifluoromethyl-1,4-dihydro-2H-quinazolin-3-yl]-methanesulfonamide, reference compound] as the compound, how does the “In vivo orally active” value read?
Its value is “No”.

Which “In vivo orally active” value does the source give for `CS(=O)(=O)Nn1c(=O)[nH]c2cc(C(F)(F)F)c(C3CCCO3)cc2c1=O` (stereo not drawn) [Compound B-2, N-[2,4-Dioxo-6-(tetrahydro-furan-2-yl)-7-trifluoromethyl-1,4-dihydro-2H-quinazolin-3-yl]-methanesulfonamide] here?
The value was “Yes”.

Which “In vivo orally active” value does the source give for `CCc1cc2[nH]c(=O)n(NS(C)(=O)=O)c(=O)c2cc1-c1ccnn1CC` [Compound C-12, N-[7-Ethyl-6-(2-ethyl-2H-pyrazol-3-yl)-2,4-dioxo-1,4-dihydro-2H-quinazolin-3-yl]-methanesulfonamide] here?
The value was “Yes”.

With `CS(=O)(=O)Nn1c(=O)[nH]c2cc(C(F)(F)F)c(-c3ccnn3O)cc2c1=O` [Compound C-5, N-[6-(2-Hydroxy-2H-pyrazol-3-yl)-2,4-dioxo-7-trifluoromethyl-1,4-dihydro-2H-quinazolin-3-yl]-methanesulfonamide] as the compound, how does the “In vivo orally active” value read?
The value was “Yes”.

For `CC(C)c1cc2[nH]c(=O)n(NS(C)(=O)=O)c(=O)c2cc1-c1ccnn1C` [Compound C-7, N-[7-Isopropyl-6-(2-methyl-2H-pyrazol-3-yl)-2,4-dioxo-1,4-dihydro-2H-quinazolin-3-yl]-methanesulfonamide], which “In vivo orally active” value is on record?
The value was “Yes”.

With `CC(O)c1cc2c(=O)n(NS(C)(=O)=O)c(=O)[nH]c2cc1C(F)(F)F` (stereo not drawn) [Compound A-1, N-[6-(1-Hydroxy-ethyl)-2,4-dioxo-7-trifluoromethyl-1,4-dihydro-2H-quinazolin-3-yl]-methanesulfonamide] as the compound, how does the “In vivo orally active” value read?
The value was “Yes”.

`COC(C)c1cc2c(=O)n(NS(C)(=O)=O)c(=O)[nH]c2cc1C(F)(F)F` (stereo not drawn) [Compound A-2, N-[6-(1-Methoxy-ethyl)-2,4-dioxo-7-trifluoromethyl-1,4-dihydro-2H-quinazolin-3-yl]-methanesulfonamide] was tested. Which “In vivo orally active” value did it give?
Its value is “Yes”.

Which “In vivo orally active” value does the source give for `CC(C)n1nccc1-c1cc2c(=O)n(NS(C)(=O)=O)c(=O)[nH]c2cc1C(F)F` [Compound C-10, N-[7-Difluoromethyl-6-(2-isopropyl-2H-pyrazol-3-yl)-2,4-dioxo-1,4-dihydro-2H-quinazolin-3-yl]-methanesulfonamide] here?
The value was “Yes”.

Which “In vivo orally active” value does the source give for `CC(OC1CCCC1)c1cc2c(=O)n(NS(C)(=O)=O)c(=O)[nH]c2cc1C(F)(F)F` (stereo not drawn) [Compound A-14, N-[6-(1-Cyclopentyloxy-ethyl)-2,4-dioxo-7-trifluoromethyl-1,4-dihydro-2H-quinazolin-3-yl]-methanesulfonamide] here?
The value was “yes”.

For `CCc1cc2[nH]c(=O)n(NS(C)(=O)=O)c(=O)c2cc1-c1ccnn1C` [Compound C-11, N-[7-Ethyl-6-(2-methyl-2H-pyrazol-3-yl)-2,4-dioxo-1,4-dihydro-2H-quinazolin-3-yl]-methanesulfonamide], which “In vivo orally active” value is on record?
Its value is “Yes”.

For `Cn1nccc1-c1cc2c(=O)n(NS(C)(=O)=O)c(=O)[nH]c2cc1C(F)F` [Compound C-9, N-[7-Difluoromethyl-6-(2-methyl-2H-pyrazol-3-yl)-2,4-dioxo-1,4-dihydro-2H-quinazolin-3-yl]-methanesulfonamide], which “In vivo orally active” value is on record?
Its value is “Yes”.

With `CCC(OC(C)C)c1cc2c(=O)n(NS(C)(=O)=O)c(=O)[nH]c2cc1C(F)(F)F` (stereo not drawn) [Compound A-7, N-[6-(1-isopropoxy-propyl)-2,4-dioxo-7-trifluoromethyl-1,4-dihydro-2H-quinazolin-3-yl]-methanesulfonamide] as the compound, how does the “In vivo orally active” value read?
Its value is “Yes”.

How did the “In vivo orally active” value turn out when `CCOC(CC)c1cc2c(=O)n(NS(C)(=O)=O)c(=O)[nH]c2cc1C(F)(F)F` (stereo not drawn) [Compound A-13, N-[6-(1-Ethoxy-propyl)-2,4-dioxo-7-trifluoromethyl-1,4-dihydro-2H-quinazolin-3-yl]-methanesulfonamide] was run?
Its value is “Yes”.

With `CC(C)n1nccc1-c1cc2c(=O)n(NS(C)(=O)=O)c(=O)[nH]c2cc1C(F)(F)F` [Compound C-2, N-[6-(2-Isopropyl-2H-pyrazol-3-yl)-2,4-dioxo-7-trifluoromethyl-1,4-dihydro-2H-quinazolin-3-yl]-methanesulfonamide] as the compound, how does the “In vivo orally active” value read?
The value was “Yes”.

For `CCC(O)c1cc2c(=O)n(NS(C)(=O)=O)c(=O)[nH]c2cc1C(F)(F)F` (stereo not drawn) [Compound A-3, N-[6-(1-Hydroxy-propyl)-2,4-dioxo-7-trifluoromethyl-1,4-dihydro-2H-quinazolin-3-yl]-methanesulfonamide], which “In vivo orally active” value is on record?
The value was “Yes”.

For `CCOC(C)c1cc2c(=O)n(NS(C)(=O)=O)c(=O)[nH]c2cc1C(F)(F)F` (stereo not drawn) [Compound A-5, N-[6-(1-Ethoxy-ethyl)-2,4-dioxo-7-trifluoromethyl-1,4-dihydro-2H-quinazolin-3-yl]-methanesulfonamide], which “In vivo orally active” value is on record?
Its value is “Yes”.

With `COCCn1nccc1-c1cc2c(=O)n(NS(C)(=O)=O)c(=O)[nH]c2cc1C(F)(F)F` [Compound C-4, N-{6-[2-(2-Methoxy-ethyl)-2H-pyrazol-3-yl]-2,4-dioxo-7-trifluoromethyl-1,4-dihydro-2H-quinazolin-3-yl}-methanesulfonamide] as the compound, how does the “In vivo orally active” value read?
The value was “Yes”.
